From US9822110B2, “Sulfonamide derivative and pharmaceutical use thereof” (EA Pharma Co., Ltd., priority 2013, dated 2017)

The compounds below were run against T1, MAdCAM-1/α4β7 integrin (Homo sapiens, UniProt P13612+P26010) (assay: Evaluation test (1) for MAdCAM-1/α4β7 integrin binding inhibitory activity in the presence of serum (RPMI-8866 cell binding to MAdCAM-1/Fc)). Conditions: RPMI-8866 cells, recombinant mouse MAdCAM-1/Fc, human serum at final concentration of 50%; read-out: α4β7 Serum Activity rank when α4β7 serum was added.
T1 construct: a human B-cell line known to express α4β7 integrin; endogenous in cells; host or cells: RPMI-8866 (human B-cell line)
T1 sequence (P13612 34-1032): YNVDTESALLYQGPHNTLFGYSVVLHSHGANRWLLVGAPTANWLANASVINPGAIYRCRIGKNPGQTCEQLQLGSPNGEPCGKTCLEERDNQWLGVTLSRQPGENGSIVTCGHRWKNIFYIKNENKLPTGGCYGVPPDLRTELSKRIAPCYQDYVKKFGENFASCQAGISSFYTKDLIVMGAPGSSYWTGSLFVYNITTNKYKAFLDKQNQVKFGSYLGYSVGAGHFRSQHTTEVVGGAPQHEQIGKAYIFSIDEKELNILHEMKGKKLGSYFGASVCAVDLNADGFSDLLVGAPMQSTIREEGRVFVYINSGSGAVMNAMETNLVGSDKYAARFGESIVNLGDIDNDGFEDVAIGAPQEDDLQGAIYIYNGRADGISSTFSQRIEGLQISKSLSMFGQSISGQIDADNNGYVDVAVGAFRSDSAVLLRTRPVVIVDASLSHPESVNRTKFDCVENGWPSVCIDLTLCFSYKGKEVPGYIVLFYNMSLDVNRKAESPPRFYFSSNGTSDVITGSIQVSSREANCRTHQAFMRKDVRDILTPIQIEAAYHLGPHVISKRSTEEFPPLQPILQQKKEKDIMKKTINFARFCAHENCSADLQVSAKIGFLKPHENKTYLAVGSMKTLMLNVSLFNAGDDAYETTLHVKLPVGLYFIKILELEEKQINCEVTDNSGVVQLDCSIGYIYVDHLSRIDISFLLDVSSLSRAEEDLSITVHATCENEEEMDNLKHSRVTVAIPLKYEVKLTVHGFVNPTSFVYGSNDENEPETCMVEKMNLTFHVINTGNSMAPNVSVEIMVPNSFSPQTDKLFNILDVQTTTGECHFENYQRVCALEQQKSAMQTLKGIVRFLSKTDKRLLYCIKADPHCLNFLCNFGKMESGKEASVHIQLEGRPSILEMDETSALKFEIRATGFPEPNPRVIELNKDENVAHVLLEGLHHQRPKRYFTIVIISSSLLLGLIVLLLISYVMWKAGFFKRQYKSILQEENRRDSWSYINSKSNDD
T1 sequence (P26010 20-798): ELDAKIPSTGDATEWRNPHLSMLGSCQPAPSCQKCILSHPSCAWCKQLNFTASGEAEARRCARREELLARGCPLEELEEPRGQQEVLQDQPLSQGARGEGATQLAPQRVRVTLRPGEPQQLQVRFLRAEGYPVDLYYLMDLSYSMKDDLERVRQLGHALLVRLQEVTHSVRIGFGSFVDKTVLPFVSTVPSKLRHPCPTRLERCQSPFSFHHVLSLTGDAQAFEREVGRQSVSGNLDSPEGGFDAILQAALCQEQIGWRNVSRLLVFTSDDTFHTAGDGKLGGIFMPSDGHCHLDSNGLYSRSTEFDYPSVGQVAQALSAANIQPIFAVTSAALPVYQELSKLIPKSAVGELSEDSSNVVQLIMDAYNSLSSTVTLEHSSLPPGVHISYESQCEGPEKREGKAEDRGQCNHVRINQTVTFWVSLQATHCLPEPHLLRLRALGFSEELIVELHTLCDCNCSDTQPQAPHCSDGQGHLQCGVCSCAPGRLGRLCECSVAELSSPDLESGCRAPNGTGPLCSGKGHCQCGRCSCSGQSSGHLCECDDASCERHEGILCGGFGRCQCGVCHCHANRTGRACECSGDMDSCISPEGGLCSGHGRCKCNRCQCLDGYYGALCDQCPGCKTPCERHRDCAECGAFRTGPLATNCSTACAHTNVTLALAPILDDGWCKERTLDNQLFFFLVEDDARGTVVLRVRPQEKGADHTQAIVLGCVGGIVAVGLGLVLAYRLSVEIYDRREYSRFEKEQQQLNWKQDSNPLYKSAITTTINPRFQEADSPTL
Format: cell-based
Method: The selectivity was determined by dividing the IC50 value in the evaluation test for VCAM-1/α4β1 integrin binding inhibitory activity by the IC50 value in the evaluation test for MAdCAM-1/α4β7 integrin binding inhibitory activity. • (3) Evaluation Test (1) for MAdCAM-1/α4β7 Integrin Binding Inhibitory Activity in the Presence of Serum
The ability of test substances to inhibit the binding of RPMI-8866 cell line, a human B-cell line known to express α4β7 integrin, to MAdCAM-1 was examined.
A 96-well microtiter plate was coated overnight at 4° C. with a recombinant mouse MAdCAM-1/Fc (R&D systems) solution diluted with the buffer A (carbonate buffer, pH 9.6). After washing once with PBS, 150 μL/well of Block Ace (manufactured by Snow Brand Milk Products Co., Ltd.) was added, and it was incubated at room temperature for 2 hours. After removal, it was washed once with PBS.
100 μL of each of test substances and RPMI-8866 cells diluted with a binding buffer solution (DMEM containing 40 mM HEPES, 0.2% BSA, and 4 mM MnCl2) to various concentrations was added to the plate coated with MAdCAM-1/Fc, so that human serum was contained at a final concentration of 50%, and it was incubated at 30° C. for 15 minutes to 60 minutes. After the cells were bound to the wells, unbound cells were removed by washing with PBS. 50 μL/well of the buffer solution C (PBS containing 1.5% Triton X-100) was added to the plate to dissolve the bound RPMI-8866 cells. 30 μL of substrate buffer (Promega, CytoTox 96 Non-Radioactive Cytotoxicity Assay) was added to 30 μL of a cell lysate to allow a reaction for 30 minutes at room temperature in a dark place. 30 μL of stop solution (Promega, CytoTox 96 Non-Radioactive Cytotoxicity Assay) was added thereto to determine the absorbance at 490 nm using a plate reader. The absorbance was obtained herein by detecting the activity of lactate dehydrogenase (LDH) eluted in a supernatant of each well, that is, the absorbance is proportional to the number of RPMI-8866 cells remaining on the plate by being bound to MAdCAM-1. The test was duplicated, and the cell binding rate at various concentrations with the absorbance of the well containing no test substance being taken as 100% was determined, to calculate the concentration IC50 at which 50% of binding was inhibited.

| Structure (SMILES) | IC50 [nM] |
| --- | --- |
| Cc1cn(-c2ccc(S(=O)(=O)Nc3cc(F)c(C(=O)N[C@@H](Cc4ccc(-c5c(C)n(C)c(=O)n(C)c5=O)cc4)C(=O)O)cc3F)nc2)nn1 [Example 37, (2S)-2-[[2,5-Difluoro-4-[[5-(4-methyltriazol-1-yl)-2-pyridyl]sulfonylamino]benzoyl]amino]-3-[4-(1,3,4-trimethyl-2,6-dioxo-pyrimidin-5-yl)phenyl]propanoic acid] | 10 to 50 |
| Cc1c(-c2ccc(C[C@H](NC(=O)c3cc(F)c(NS(=O)(=O)c4ccco4)cc3F)C(=O)O)cc2)c(=O)n(C)c(=O)n1C [Example 38, (2S)-2-[[2,5-Difluoro-4-(2-furylsulfonylamino)benzoyl]amino]-3-[4-(1,3,4-trimethyl-2,6-dioxo-pyrimidin-5-yl)phenyl]propanoic acid] | 10 to 50 |
| CNCc1ccc2c(c1)c(=O)n(-c1ccc(C[C@H](NC(=O)c3cc(F)c(NS(=O)(=O)c4ccc(-c5cnc(COC)nc5)cc4)cc3F)C(=O)O)cc1)c(=O)n2C [Example 39, (2S)-2-[[2,5-Difluoro-4-[[4-[2-(methoxymethyl)pyrimidin-5-yl]phenyl]sulfonylamino]benzoyl]amino]-3-[4-[1-methyl-6-(methylaminomethyl)-2,4-dioxo-quinazolin-3-yl]phenyl]propanoic acid] | 10 to 50 |
| COc1cc2c(=O)n(-c3ccc(C[C@H](NC(=O)c4cc(F)c(NS(=O)(=O)c5ccc(-c6cnc(COC(C)C)nc6)cc5)cc4F)C(=O)O)nc3)c(=O)n(C)c2cn1 [Example 41, (2S)-2-[[2,5-Difluoro-4-[[4-[2-(isopropoxymethyl)pyrimidin-5-yl]phenyl]sulfonylamino]benzoyl]amino]-3-[5-(6-methoxy-1-methyl-2,4-dioxo-pyrido[3,4-d]pyrimidin-3-yl)-2-pyridyl]propanoic acid] | > 200 |
| CC(C)OCc1ncc(-c2ccc(S(=O)(=O)Nc3cc(F)c(C(=O)N[C@@H](Cc4ccc(-n5c(=O)c6cncnc6n(C)c5=O)cn4)C(=O)O)cc3F)cc2)cn1 [Example 43, (2S)-2-[[2,5-Difluoro-4-[[4-[2-(isopropoxymethyl)pyrimidin-5-yl]phenyl]sulfonylamino]benzoyl]amino]-3-[5-(1-methyl-2,4-dioxo-pyrimido[4,5-d]pyrimidin-3-yl)-2-pyridyl]propanoic acid] | > 200 |
| CC(C)OCc1ncc(-c2ccc(S(=O)(=O)Nc3cc(F)c(C(=O)N[C@@H](Cc4ccc(-n5c(=O)cc(C(F)(F)F)n(C)c5=O)cc4)C(=O)O)cc3F)cc2)cn1 [Example 44, (2S)-2-[[2,5-Difluoro-4-[[4-[2-(isopropoxymethyl)pyrimidin-5-yl]phenyl]sulfonylamino]benzoyl]amino]-3-[4-[3-methyl-2,6-dioxo-4-(trifluoromethyl)pyrimidin-1-yl]phenyl]propanoic acid] | 50 to 200 |
| Cc1cc(-c2ccccn2)ccc1S(=O)(=O)Nc1ccc(C(=O)N[C@@H](Cc2ccc(-c3c(C)n(C)c(=O)n(C)c3=O)cc2)C(=O)O)c(F)c1 [Example 46, (2S)-2-[[2-Fluoro-4-[[2-methyl-4-(2-pyridyl)phenyl]sulfonylamino]benzoyl]amino]-3-[4-(1,3,4-trimethyl-2,6-dioxo-pyrimidin-5-yl)phenyl]propanoic acid] | > 200 |
| CC(C)OCc1ncc(-c2ccc(S(=O)(=O)Nc3cc(F)c(C(=O)N[C@@H](Cc4ccc(-n5c(=O)c6ccncc6n(C)c5=O)cc4)C(=O)O)cc3F)cc2)cn1 [Example 85] | 10 to 50 |

Next, values leading:

| IC50 [nM] | Structure (SMILES) |
| --- | --- |
| 50 to 200 | Cc1c(-c2ccc(C[C@H](NC(=O)c3cc(F)c(NS(=O)(=O)c4ccc(-c5cnc(COC(C)C)nc5)cc4)cc3F)C(=O)O)cc2)c(=O)n(C)c(=O)n1C [Example 40, (2S)-2-[[2,5-Difluoro-4-[[4-[2-(isopropoxymethyl)pyrimidin-5-yl]phenyl]sulfonylamino]benzoyl]amino]-3-[4-(1,3,4-trimethyl-2,6-dioxo-pyrimidin-5-yl)phenyl]propanoic acid] |
| 50 to 200 | CC(C)OCc1ncc(-c2ccc(S(=O)(=O)Nc3cc(F)c(C(=O)N[C@@H](Cc4ccc(-n5c(=O)ccn(C)c5=O)cc4)C(=O)O)cc3F)cc2)cn1 [Example 42, (2S)-2-[[2,5-Difluoro-4-[[4-[2-(isopropoxymethyl)pyrimidin-5-yl]phenyl]sulfonylamino]benzoyl]amino]-3-[4-(3-methyl-2,6-dioxo-pyrimidin-1-yl)phenyl]propanoic acid] |
| 10 to 50 | CCc1ncc(-c2ccc(S(=O)(=O)Nc3c(F)c(F)c(C(=O)N[C@@H](Cc4ccc(-c5c(C)n(C)c(=O)n(C)c5=O)cc4)C(=O)O)c(F)c3F)cc2)cn1 [Example 45, (2S)-2-[[4-[[4-(2-Ethylpyrimidin-5-yl)phenyl]sulfonylamino]-2,3,5,6-tetrafluoro-benzoyl]amino]-3-[4-(1,3,4-trimethyl-2,6-dioxo-pyrimidin-5-yl)phenyl]propanoic acid] |
| 10 to 50 | Cc1c(-c2ccc(C[C@H](NC(=O)c3c(F)cc(NS(=O)(=O)c4ccc(C(=O)NC5CC5)cc4)cc3F)C(=O)O)cc2)c(=O)n(C)c(=O)n1C [Example 47] |
| 10 to 50 | COCc1ncc(-c2ccc(S(=O)(=O)Nc3cc(F)c(C(=O)N[C@@H](Cc4ccc(-n5c(=O)c6ccncc6n(C)c5=O)nc4)C(=O)O)cc3F)cc2)cn1 [Example 51, (2S)-2-[[2,5-Difluoro-4-[[4-[2-(methoxymethyl)pyrimidin-5-yl]phenyl]sulfonylamino]benzoyl]amino]-3-[6-(1-methyl-2,4-dioxo-pyrido[3,4-d]pyrimidin-3-yl)-3-pyridyl]propanoic acid] |
| 10 to 50 | Cc1c(-c2ccc(C[C@H](NC(=O)c3cc(F)c(NS(=O)(=O)c4ccc(-c5cnc(C6CCOCC6)nc5)cc4)cc3F)C(=O)O)cc2)c(=O)n(C)c(=O)n1C [Example 86, (2S)-2-[[2,5-Difluoro-4-[[4-(2-tetrahydropyran-4-ylpyrimidin-5-yl)phenyl]sulfonylamino]benzoyl]amino]-3-[4-(1,3,4-trimethyl-2,6-dioxopyrimidin-5-yl)phenyl]propanoic acid] |
